# Data as given in patent US8133986B2, “Methylated CpG island amplification (MCA)” (The Johns Hopkins University School of Medicine, priority 1998, dated 2012).
# Tests used:
# Assay type in all cases: cell-based, human
# [1] = tested on: region 7 of CACNA1G CpG island; test: Bisulfite-PCR methylation analysis of the 5′ CpG island of CACNA1G after treatment; conditions: same cell lines after treatment; bisulfite-PCR (FIG. 3C)
# Excerpt: The CACNA1G CpG island is 4 kb, and is larger than many typical CpG islands. MINT31 corresponds to the 5′ edge of the island while CACNA1G is in the 3′ region. It is not known whether large CpG islands such as this are coordinately regulated with regards to protection from methylation, and aberrant methylation in cancer. To address this issue, the methylation status of the 5′ region of CACNA1G was studied using bisulfite-PCR of DNA from normal tissues as well as 35 human cancer cell lines from colon, lung, prostate, breast and hematopoietic tumors. The CpG island was divided into 8 regions and their methylation status was examined separately. The genomic DNA was treated with sodium bisulfite and PCR amplified using primers containing no or a minimum number of CpG sites. Methylated alleles were detected by digesting the PCR products using restriction enzymes which specifically cleave sites created or retained due to the presence of methylated CpGs. None of the regions was methylated in normal colon, consistent with a uniform protection against de-novo methylation. […]
# [2] = tested on: versican; test: RT-PCR expression of versican in methylated colon cancer cell lines after demethylating treatment; conditions: 1 μM for 2-5 days
# Excerpt: To determine whether some of these clones truly represented genes silenced by methylation, we examined the versican gene in more detail. Versican is a secreted glycoprotein that appears to be regulated by the Rb tumor suppressor gene. MINT11 corresponds to part of exon 1 and part of intron 1 of the versican gene (FIG. 3A). Hypermethylation of the two SmaI sites in exon 1 and intron 1 in colon cancer cell lines was confirmed by both Southern blot analysis and MCA. In order to determine if this methylation was representative of the entire CGI, including the proximal promoter, PCR was performed on bisulfite-treated DNA using primers designed to amplify the region around the transcription start site of this gene. The PCR product was then digested with restriction enzymes that distinguish methylated from unmethylated DNA. […] In primary colon tumors, versican was hypermethylated in 17 out of 25 cases (68%). […] The level of methylation in normal colon mucosa increased with age of the patient (FIG. 3C), from an average of 6.9% in patients between 20 and 30 years of age, to an average of 28.9% in patients over 80. […] Using RT-PCR, we next examined the expression of versican in normal colon mucosa and CRC cell lines.
# Total RNA was prepared from normal colon epithelium and tumor cell lines using TRIZOL (GIBCO-BRL). […] The expression of versican was determined by RT-PCR using the primers […]
# [3] = tested on: CACNA1G; test: Re-expression of CACNA1G mRNA (RT-PCR) in methylated tumor cell lines after methyl-transferase inhibitor treatment; set-up: dose or concentration left out as unconfirmed; conditions: RKO, SW48, Raji (pattern 4) and MB-231, MB-435 (pattern 5) cell lines; treated
# Experimental: To determine the expression of CACNA1G in normal and neoplastic human cells, RT-PCR was performed using cDNA from various normal tissues and from a panel of 27 tumor cell lines. CACNA1G was expressed ubiquitously in a variety of tissues and cell lines. In normal tissues expression was relatively low but easily detectable, while most cell lines had relatively high expression of CACNA1G. However, some cell lines had negligible or totally absent levels of CACNA1G expression. The results of CACNA1G expression was correlated with the detailed methylation analysis previously described. In this analysis, a remarkable pattern emerged. Methylation of region 1-4 and 8 had no effect on CACNA1G expression. However, there was a strong correlation between methylation of regions 5-7 and expression of the gene. In fact, all cell lines that lack methylation of this region strongly express the gene. All 6 cell lines with pattern 4 methylation studied had no detectable expression. Finally, the 7 cell lines with pattern 5 methylation (examples DLD-1 and MB-453) had variable levels of expression ranging from very low to near normal. […]
# Total RNA was prepared from normal colon epithelium and tumor cell lines using TRIZOL (GIBCO-BRL). […] The expression of versican was determined by RT-PCR using the primers
smiles,measurement,setting,value
"Nc1ncn([C@H]2C[C@H](O)[C@@H](CO)O2)c(=O)n1 [5-aza-deoxycytidine, 5-aza-2′-deoxycytidine]",Methylation of region 7 of CACNA1G,[1],demethylation of region 7 was observed
same,Expression of versican,[2],easily restored
same,CACNA1G mRNA expression,[3],re-expressed
